Measured values reported in PMC12070314, “Efficient Small-Molecule Reversal Agents for Anticoagulant Fondaparinux” (ACS Pharmacology & Translational Science, 2025).

How the values were obtained:
[1] = test system: FXa/ATIII inhibited by fondaparinux; experiment: In vitro FXa/ATIII enzymatic assay of anti-fondaparinux activity; assay type: biochemical, human; details: for Restoration of FXa protease activity (hydrolysis rate of the peptide substrate): 15 μM fond + 9 or 15 μM antidote, HPLC
Experimental: The activity of two spermine derivatives, 3AC and 3FF, as fond antidotes was evaluated with an in vitro enzymatic assay related to blood coagulation, as previously described (Figure A). , In brief, fond promotes a conformational change in ATIII toward an efficient inhibitor of FXa. Addition of a ligand of fond hinders the inhibitory action of ATIII restoring the FXa hydrolytic activity, which has been used as an indirect measurement of antifond behavior.
Recombinant antithrombin III and coagulation factor Xa were obtained from two different kits, Berichrom Heparin test (SIEMENS) and Kinetichrome Anti-Xa Heparin kit (Iduron). Methods for both kits are similar, but not identical. Differences will be spotted by method A (SIEMENS) and method B (Iduron). Following the manufacturer’s instructions, stock solutions were prepared as follows: human antithrombin III (1 IU/mL) and factor Xa reagent (0.4 μg/mL, human plasma fraction with additives Tris, sodium chloride, and EDTA). Chromogenic substrate specific for factor Xa was dissolved at 4 mM concentration (A: Z-D-Leu-Gly-Arg-ANBA-methyl amide, and B: Z-D-Arg-Gly-Arg-pNA). Additionally, either 4-nitroaniline (A) or N-Boc-4-nitroaniline (B) was added to the substrate solution at a concentration of 1.6 mM and used as an internal standard to quantify the hydrolysis of the chromogenic substrate. All compounds were dissolved in Milli-Q water at the desired stock concentrations prior to start of the assays and kept at 4 °C. Various concentrations of the ligand, fondaparinux (up to 15 μM) or LMWH (0.1 to 10 μM), human antithrombin III solution (2 μL), and factor Xa reagent solution (35 μL) were consecutively added to an Eppendorf vial and brought to a total volume of 145 μL. Then, 20 μL of reagent substrate solution was added to start the experiment, and the mixture was vigorously shaken at 25 °C. 20 μL aliquots were taken at 5/10/15/20/30/50/80/120 minutes, diluted with 40 μL of acetic acid (20% v/v), and injected into the analytical HPLC system. The gradient ranged from 5% of ACN (0.1% formic acid) in water (0.1% formic acid) to 100% of ACN in 24 min using a 15 × 4.6 mm KROMAPHASE C18 5.0 μm column. In A: the retention time of cleaved chromophore was 9.1 min, retention time of chromogenic substrate was 13.9 min, and retention time of 4-nitroaniline was 15.4 min. In B: the retention time of chromogenic substrate was 11.0 min, retention time of cleaved chromophore was 15.2 min, and retention time of N-Boc-4-nitroaniline was 21.7 min. FXa/ATIII activity was represented as the percent of hydrolysis, which was calculated from the normalized area of the cleaved peptide at 405 nm at each corresponding time point. The experiment carried out in the absence of heparinoid was considered as the maximum of activity, while the experiment with heparinoid and no ligand was considered as negative control (maximum inhibition of FXa by heparinoid). The concentration of heparinoid was selected for the measurement to render significant inhibition within experimental time while allowing the reaction to proceed.

HeLa cells = experiment: MTT cell viability assay; assay type: cell-based; details: concentrations <100 μM
Experimental: (§1) A549 and HeLa cells were maintained in DMEM ([…] glucose, Sigma) containing 10% fetal calf serum (FCS), 2 mM glutamine, 50 U/mL penicillin, and […] streptomycin at 37 °C under a 5% CO2 atmosphere. HMEC-1 and fibroblast cells were maintained in MCDB 131 medium (GIBCO) containing 10% fetal calf serum (FCS), 2 mM glutamine, 50 U/mL penicillin, and […] streptomycin at 37 °C under a 5% CO2 atmosphere.
(§2) The viability of A549 and HeLa cells was tested using the 3-(4,5-dimethylthiazol-2-yl)-2,5-diphenyltetrazolium bromide (MTT) assay. In it, exponentially growing cells were detached from the culture flasks using a trypsin–0.25% EDTA solution, and the cell suspension was seeded onto a 96-well plate (Nunclon) at a concentration of 9k cells/well. The toxicity of 3AC and 3FF was tested as follows: 24 h after seeding, culture medium was discarded and replaced by compound solution in PBS that was diluted with cell culture medium to the final concentration: [3××] = 10 to 100 μM. MTT (0.5 mg/mL) was added. […] Absorbance was measured at 570 nm using a spectrophotometric BioTek Synergy 2 Microplate Reader (Agilent), 30 min after the addition of DMSO. Cell viability is expressed as an absorbance percent ratio of cells treated with compound to untreated cells, which were used as a control. The results are the average from three independent experiments.

A549 cells = experiment: MTT cell viability assay; assay type: cell-based; details: A549, concentrations <100 μM
Experimental: as §1, §2

[2] = Fluorescence titration with fondaparinux; assay type: binding; details: for Kd: read-out: Apparent overall affinity for fond, K D^app ≈ BC50°
Source text: The fluorescence emission spectrum of 3AC upon excitation at 280 nm is a suitable indicator of the interaction with heparin-like GAGs. Thus, the titration of 3AC with fond in Bis-Tris buffer at pH 7.5 produced a perturbation of the corresponding intensity of the fluorene emission band (Figure A), presenting two clearly differentiated phases. At a low fond/3AC ratio, the fluorescence emission intensity decreases most likely due to the proximity of chromophores when several molecules of 3AC are closely bound to one molecule of fond. After reaching a fond/3AC molar ratio of ∼0.6, the emission band starts to recover as 3AC molecules are redistributed to equimolecular complexes with fond. Considering the disaccharide repeating unit of heparin as the main binding epitope of our ligands and the electrostatic charge complementarity, we can hypothesize the formation of fond/3AC supramolecular complexes with both 1:1 and 1:2 stoichiometries as the simplest binding model satisfying the two-phase behavior (Figure B). The emission band variation was successfully fitted to the 1:2 fond/3AC equilibria, rendering the formation constants (log β values) for the corresponding complexes (inset in Figure A).
Fluorescence emission and excitation spectra were collected on a Photon Technology International Instrument, Fluorescence Master Systems, using Felix32 software and cuvettes with 10 mm path length. Stock solutions of 3AC (10 μM) and fondaparinux (0.23 mM, also containing 10 μM 3AC) were prepared in 1 mM Bis-Tris buffer at pH 7.5. Then, 2 mL of binder solution was placed on a quartz cell, and the emission fluorescence spectrum was measured upon excitation at 280 nm. Then, small volumes of fond stock solution were added to the cell, and the fluorescence spectra were acquired after each addition. The titration experiments were fitted using HyperSpec 2008 software, , which allows a nonlinear global fitting of the full emission spectra to a binding mode as defined by the user.

[3] = [fond] = [antidote] = 15 μM, three reaction times

| SMILES | Restoration of FXa protease activity (hydrolysis rate of the peptide substrate) [1] | Percent recovery of peptide substrate hydrolysis [1, 3] | Cell viability (toxicity) (HeLa cells) | Cell viability (toxicity) (A549 cells) | Kd ([2]; 1 mM Bis-Tris buffer pH 7.5) [µM] | Percent recovery of peptide substrate hydrolysis ([1]; [fond] = 15 μM, lower antidote concentration (9 μM), Figure S2) | Stepwise binding constant K (1:1) ([2]; fond/3AC 1:1 complex, 1 mM Bis-Tris buffer pH 7.5) | Stepwise binding constant K (1:2) ([2]; fond/3AC 1:2 complex, 1 mM Bis-Tris buffer pH 7.5) | logβ(3AC-Fond) ([2]; formation constant from model fitting, 1:1 complex) | logβ(3AC2-Fond) ([2]; formation constant from model fitting, 1:2 fond/3AC complex) |
| --- | --- | --- | --- | --- | --- | --- | --- | --- | --- | --- |
| Oc1ccc2ccccc2c1CNCCCNCCCCNCCCNCc1c(O)ccc2ccccc12 [Compound 3FF] | restore the FXa protease activity in a dose–response manner | almost complete fast recovery up to the control values | low to acceptable cell toxicity | low to acceptable cell toxicity | 9.8 ± 0.3 |  |  |  |  |  |
| Oc1ccccc1CNCCCNCCCCNCCCNCc1ccc2c(c1)Cc1ccccc1-2 [Compound 3AC] | restore the FXa protease activity in a dose–response manner | almost complete fast recovery up to the control values | low to acceptable cell toxicity | low to acceptable cell toxicity | 4.5 ± 0.09 | higher potency | 2.05 ± 0.05 × 10^5 M^–1 | 1.95 ± 0.19 × 10^4 M^–1 | 5.31(1) | 9.60(3) |
